These results are taken from article PMC9945734 (BMC Medicine, 2023).

In assay [1] the test system is PC-3 (KLF5 null) cells expressing KLF5^K369Q. The assay is described as follows: CCK-8 cell viability assay. Format: cell-based, human. To be noted: for cell number: PC-3-KQ. Here is the method: According to the manufacturer's instructions, cell viability was measured using a kit from Beyotime Biotechnology. Briefly, cells were seeded onto 96-well plates at 5 × 10^3 cells per well, incubated overnight, and then treated for 48 h with drugs at 0, 0.02, 0.05, 0.14, 0.41, 1.23, 3.7, 11.1, 33.3, and 100 μM. Four drugs were analyzed: furagin, nifuratel, nitazoxanide, and retapamulin. At the end of drug treatment, the medium was removed, the CCK-8 solution was added into each well at 100 μL/well and incubated for 1.5 h at 37°C, and the optical density (OD) was measured at 450 nm using a microplate reader (BioTek).
We also tested a wider range of NTZ concentrations in PC-3-KQ and DU 145-KQ cells using the CCK-8 assay by seeding 2 × 10^3 cells and 2.5 × 10^3 cells onto each well of 96-well plates. PC-3-KQ cells were treated with NTZ at 0, 0.01, 0.1, […], 2.5, and 5 μM, while DU 145-KQ cells were treated with NTZ at 0, 0.01, 0.1, 5, 10, and 20 μM for 0, 24, 48, and 72 h. The number of viable cells was determined using the CCK-8 solution as described above.
In general terms: Tetrazolium dyes change colour on reduction, which living cells bring about.

A further assay deals with DU 145-KQ cells. Nature of the assay: Clone formation assay. To be noted: 0-20 μM, 8 days. Format: cell-based, human. Here is the method:
(§1) PC-3-KQ and DU 145-KQ cells were seeded onto 6-well plates at 1 × 10^3 cells/well. After incubation for 24 h, PC-3-KQ cells were treated with NTZ at 0, 1.25, 2.5, and 5 μM, while DU 145-KQ cells were treated with NTZ at 0, 5, 10, and 20 μM for 8 days. The drug-containing medium was replaced every 2 days. On the 8th day, cells were rinsed with cold PBS, fixed with 4% paraformaldehyde for 10 min, stained with purple crystal for 10 min, and photographed, and the images were analyzed using the Image J software.

In a further assay the test system is PC-3-KQ cells. Nature of the assay: Clone formation assay. Format: cell-based, human. To be noted: 0-5 μM, 8 days. The method, then: as §1
The test system of the next assay is PC-3-KQ-Luc cells. The assay is described as follows: Bone metastasis assay, therapy mode. Format: in vivo, Balb/c nude mice. The method, then: Male Balb/c nude mice at 3-4 weeks old were purchased from Charles River (Beijing, China). Upon arrival at the Animal Center of the Southern University of Science and Technology (SUSTech), mice were quarantined for one week before use. All mice were maintained and handled following the National Institutes of Health guide for the Care and Use of Laboratory Animals. […] The tumor growth and body weight were measured each week. […] Tumor growth in the bone was determined once a week by in vivo BL imaging using the Living Image Software 4.4 (IVIS Spectrum, PerkinElmer Health Sciences, Massachusetts, USA). Ten minutes after intraperitoneal injection of D-luciferin sodium salt (15 mg/mL, 10 μL/g BW) (GM-040611, Genomeditech, Shanghai, China), bioluminescence images were acquired with the following conditions: open emission filter, exposure time = 60 s, binning = medium: 8, field of view = 12.9 ×12.9 cm, and f/stop = 1. Images were then analyzed using the Living Image 4.4 software (PerkinElmer). At the end of treatment, bioluminescence intensities were measured by photon flux of the region of interest (ROI) and compared between the vehicle and NTZ treatment groups. […] CC0113, […] Biotechnology, Beijing, China) was used as vehicle control, and NTZ was solved in CMC. NTZ was delivered into mice via intragastric administration (100 mg/kg BW) every day. After the sacrifice of mice, hind limbs were removed and fixed in 4% paraformaldehyde for 48 h. Limbs were then scanned using a micro-CT scanner (Skyscan1276, Bruker, Kontich, Belgium). For micro-CT imaging, the scan parameters were: source voltage, 60 kV; source current, 100 μA; AI 0.5 mm filter; pixel size, 10 μm; rotation step, 0.4 degrees. The images were then processed and constructed using the NRecon software (Version 1.7.1.6, Bruker) and converted using […] (Version 1.5.4, Bruker). The region of interest (ROI), set at 0.5 mm from the femur growth plate, was analyzed using the CT-Analyser (CTAn) program. Parameters included bone volume/total volume (BV/TV), trabecular number (Tb.N), trabecular separation (Tb.Sp), and trabecular thickness (Tb.Th). Finally, the 3D images were performed in CTvox software (Version 2.0, Bruker). Femurs were decalcified in ethylenediaminetetraacetic (EDTA) decalcification solution (Cat #: R20403-5L, OKA, Beijing, China) for 14-21 days. After decalcification, bone tissues were dehydrated in gradient ethanol from 70 to 95%, soaked in n-butanol for 6 h, and then embedded in paraffin. Tissue blocks were cut into 4 μm sections. After baking in an oven at 63°C for 1.5 h, tissue slides were deparaffinized with xylene, hydrated with gradient ethanol, and then stained with H&E (Cat #: BA4025, BaSO, Zhuhai, China). Slides were then mounted for analysis with neutral resins (Cat #: 25608-33-7, Sigma-Aldrich, MO, USA).

The subject of another assay is MMP9. The assay is described as follows: MMP9 immunohistochemical staining of bone metastases. Format: in vivo, Balb/c nude mice. The settings on record: KLF5^K369Q-induced bone metastases. Here is the method:
(§2) Immunohistochemical staining was conducted following established procedures. Briefly, 4-μm sections of bone tissues were deparaffinized in xylene and rehydrated in gradient ethanol. The endogenous antigen was retrieved by incubating slides in 10 mM sodium citrate buffer (Cat #: C1010, Solarbio, Beijing, China) overnight in an oven at 65°C. After antigen retrieving, tissue sections were incubated with 3% hydrogen peroxide at room temperature for 10 min to block the endogenous […] activity. They were then incubated in a blocking solution (0.1% albumin bovine V mixed with 10% goat serum) for 40 min, and a solution containing a primary antibody (MMP9, 1:1000, Cat #: ab76003, Abcam, Cambridge, UK; MYBL2, 1:100, Cat #: ab76009, Abcam) for 1.5 h. After rinsing with PBS for 3 times, slides were incubated with the secondary antibody solution for 15 min and then with the DAB solution using the MaxVision II HRP kit (Cat #: KIT-5920, MXB Biotechnologies, Fuzhou, China). Nuclei were counterstained with hematoxylin for 2 min. Slides were then dehydrated with gradient ethanol (75–100%) and xylene and mounted with coverslips using the quick-hardening mounting medium. All slides were scanned using an Aperio VERSA 8 Scanner System (Leica, Wetzlar, Germany) and analyzed using the Image J software (Image J 1.48v, NIH, Bethesda, MD, USA).

The next assay deals with MYBL2. Nature of the assay: MYBL2 immunohistochemical staining of bone tissues. Format: in vivo, Balb/c nude mice. To be noted: treatment in mice. Here is the method:
as §2

Setting [2] is: 100 mg/kg intragastric every day.

What is called IC50 is the midpoint of a concentration-inhibition curve.

As for `CC(=O)Oc1ccccc1C(=O)Nc1ncc([N+](=O)[O-])s1` [Nitazoxanide], in assay [1] (Homo sapiens, PC-3 (KLF5 null), KLF5^K369Q, CCK-8, 48 h), inhibition was half-maximal at 5.4 ± 0.5 µM (IC50). In addition, the cell number result in assay [1] (higher concentrations (up to 5 μM)) is listed as “decreased cell number”. Further, the cell number result in assay [1] (lower concentrations (0–0.1 μM), 0 to 72 h) is listed as “did not affect cell number”. Moreover, in the assay with DU 145-KQ cells, the colony number entry is “reduced colony number”. Further, the colony number entry in the assay on PC-3-KQ cells is recorded as “reduced colony number”. Moreover, in the assay on PC-3-KQ-Luc cells (setting [2]), the “bone lesions (micro-CT)” value is given as “significantly reduced such lesions” and the “tumor area in the bone (H&E)” value is given as “significantly reduced the tumor area”. Further, in the assay with PC-3-KQ-Luc cells (micro-CT of femurs), the BV/TV entry is “significantly increased”, the “Tb. N” value is “significantly increased”, the “Tb. Sp” value is recorded as “potently decreased” and the “Tb. Th” value is given as “significantly increased”. The bioluminescence intensities entry with PC-3-KQ-Luc cells (treatment from day 7 for 4 weeks, 100 mg/kg intragastric every day) was “sharply decreased bioluminescence intensities”. Further, the “MMP9 protein expression (IHC)” value with MMP9 is recorded as “decrease of MMP9 protein expression”. For the same molecule, in the assay with MYBL2, the “MYBL2 protein expression in bone tissues (IHC)” value is “significantly decreased MYBL2 protein expression”.
